Assay results: ChEMBL document CHEMBL1201862, “PubChem BioAssay data set” (2004)
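1) Cells in 96-well plates. 2) Compound, 48 h, 5 concentrations. 3) Linear interpolation between surrounding doses. 4) Unreached endpoint = highest concentration. At the GI50, growth is halved.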 Activity calls are given as the source filed them. No stated cut-off is given here; in the data, active = GI50 up to about 1.1 µM and inactive = higher.

How the values were obtained:
Assay in all cases: DTP human tumour cell line panel, 48 h
[1] = system: MOLT-4
[2] = system: IGROV-1
[3] = system: DMS-273
[4] = system: NCI-H460
[5] = system: OVCAR-4
[6] = system: HOP-92
[7] = system: HT-29
[8] = system: SF-539
[9] = system: A549
[10] = system: M14
[11] = system: ACHN
[12] = system: SNB-75
[13] = system: SR
[14] = system: SK-MEL-28
[15] = system: SK-MEL-2
[16] = system: SF-295
[17] = system: SNB-19
[18] = system: RPMI-8226
[19] = system: CAKI-1
[20] = system: SNB-78
[21] = system: EKVX
[22] = system: HCT-116
[23] = system: SW-620
[24] = system: NCI-H23
[25] = system: NCI-H522
[26] = system: HL-60
[27] = system: A498
[28] = system: OVCAR-5
[29] = system: SF-268
[30] = system: TK-10
[31] = system: DMS-114
[32] = system: OVCAR-8
[33] = system: NCI-H226
[34] = system: SK-MEL-5
[35] = system: UO-31
[36] = system: SK-OV-3
[37] = system: U-251
[38] = system: K562
[39] = system: KM12
[40] = system: DLD-1
[41] = system: HOP-62
[42] = system: SN12C
[43] = system: UACC-257
[44] = system: Malme-3M
[45] = system: LXFL 529
[46] = system: CCRF-CEM
[47] = system: COLO 205
[48] = system: HCC 2998
[49] = system: 786-0
[50] = system: UACC-62
[51] = system: OVCAR-3
[52] = system: HOP-18
[53] = system: M19-MEL
[54] = system: HCT-15

CC1(c2ccccc2)CC(c2ccccc2)=NO1 (centres undefined)
GI50 [1]: > 100 µM (inactive)
GI50 [2]: > 100 µM (inactive)
GI50 [3]: > 100 µM (inactive)
GI50 [4]: > 100 µM (inactive)
GI50 [5]: > 100 µM (inactive)
GI50 [6]: > 100 µM (inactive)
GI50 [7]: > 100 µM (inactive)
GI50 [8]: > 100 µM (inactive)
GI50 [9]: > 100 µM (inactive)
GI50 [10]: > 100 µM (inactive)
GI50 [11]: > 100 µM (inactive)
GI50 [12]: > 100 µM (inactive)
GI50 [13]: > 100 µM (inactive)
GI50 [14]: > 100 µM (inactive)
GI50 [15]: > 100 µM (inactive)
GI50 [16]: > 100 µM (inactive)
GI50 [17]: > 100 µM (inactive)
GI50 [18]: > 100 µM (inactive)
GI50 [19]: > 100 µM (inactive)
GI50 [20]: > 100 µM (inactive)
GI50 [21]: > 100 µM (inactive)
GI50 [22]: > 100 µM (inactive)
GI50 [23]: > 100 µM (inactive)
GI50 [24]: > 100 µM (inactive)
GI50 [25]: > 100 µM (inactive)
GI50 [26]: > 100 µM (inactive)
GI50 [27]: > 100 µM (inactive)
GI50 [28]: > 100 µM (inactive)
GI50 [29]: > 100 µM (inactive)
GI50 [30]: > 100 µM (inactive)
GI50 [31]: > 100 µM (inactive)
GI50 [32]: > 100 µM (inactive)
GI50 [33]: > 100 µM (inactive)
GI50 [34]: > 100 µM (inactive)
GI50 [35]: > 100 µM (inactive)
GI50 [36]: > 100 µM (inactive)
GI50 [37]: > 100 µM (inactive)
GI50 [38]: > 100 µM (inactive)
GI50 [39]: > 100 µM (inactive)
GI50 [40]: > 100 µM (inactive)
GI50 [41]: > 100 µM (inactive)
GI50 [42]: > 100 µM (inactive)
GI50 [43]: > 100 µM (inactive)
GI50 [44]: > 100 µM (inactive)
GI50 [45]: > 100 µM (inactive)
GI50 [46]: > 100 µM (inactive)
GI50 [47]: > 100 µM (inactive)
GI50 [48]: > 100 µM (inactive)
GI50 [49]: > 100 µM (inactive)
GI50 [50]: > 100 µM (inactive)
GI50 [51]: > 100 µM (inactive)
GI50 [52]: > 100 µM (inactive)
GI50 [53]: > 100 µM (inactive)
GI50 [54]: > 100 µM
